# Patent US20250367240A1, “DERIVATION OF GLUCOSE-RESPONSIVE INSULIN-SECRETING CELLS AND ORGANOIDS FROM HUMAN STOMACH CELLS AND THEIR USE TO TREAT DIABETES” (CORNELL UNIVERSITY, priority 2022, published 2025)
# “Also recorded” adds a separate entry of the source.
# Key:
# Assay type in all cases: cell-based, human
# GINS organoids [1] = experiment: Dynamic GSIS with perifusion; settings: day-21 organoids, two donors; 100 ng/mL Liraglutide in 20 mM glucose; 30 mM KCl in 2 mM glucose
# Protocol: Twenty GINS organoids were sampled for each group. Organoids were washed with RPMIN and equilibrated in 1 mM glucose RPMIN for 2 hours at 37° C. incubator. The assay was performed in RPMIN on a temperature-controlled (37° C.) perifusion system (Biorep Technologies). Organoids were loaded in chambers and perfused at a flow rate of 100 μL/min in the following steps: (1) 48 min in 1 mM glucose, (2) 24 min in 2 mM glucose. (3) 36 min in 20 mM glucose, (4) 24 min in 20 mM glucose with 100 ng/mL Liraglutide (Cayman, 24727), (5) 48 min in 2 mM glucose, (6) 20 min in 2 mM glucose with 30 mM KCl. Secreted insulin was measured using the Stellux Chemi Human Insulin ELISA.
# Ngn3ER/PM-hGSCs = experiment: Supplement screen to formulate serum-free medium for GINS differentiation; settings: day-7 post differentiation; for INS mRNA levels: single supplement in serum-free basal medium
# Protocol: Ngn3ER/PM-hGSCs were seeded 5 days prior to differentiation in 96-well plate. To start differentiation, 1 μM 4-OH-TAM was added and incubated for 2 days. The culture medium was then changed to serum-free basal medium with one supplement and Doxycycline to activate Pdx1-Mafa expression. The basal serum-free medium for screens was prepared as follows: advanced DMEM/F12 (Thermo Fisher Scientific, 12634010) was supplemented with 10 mM HEPES (Thermo Fisher Scientific, 15-630-080), 1× GlutaMAX (Thermo Fisher Scientific, 35050061), 1× B-27 (Themo Fisher Scientific, 17504044), 1× N-2 (Thermo Fisher Scientific, 17502048), 25 μM Primocin, and 500 μM N-Acetyl-L-Cysteine (NAC) (Sigma-Aldrich, A9165). Seven days after supplement treatment, the following were (1) spontaneous clustering of nascent GINS cells by live imaging of mCherry^+ cells, and (2) qPCR of INS mRNA levels. Then multiple b-cell markers with qPCR on samples treated with Nicotinamide, Y-27632 and A8301 were analyzed.
# GINS organoids [2] = experiment: Static glucose-stimulated insulin secretion (GSIS); settings: day-18 organoids donor #6; 10 nM glibenclamide or 0.5 mM diazoxide
# Protocol: Ten to twenty GINS organoids were sampled for each group. Organoids were washed with RPMI-1640 no nutrient medium (RPMIN, MyBioSource, MBS652918), and equilibrated in 3.3 mM glucose RPMIN for 2 hours. Organoids were incubated in low-glucose RPMIN for 1 hour, and supernatant was collected. Organoids were then incubated in high-glucose RPMIN for 1 hour, and supernatant was collected. For sequential glucose challenge, organoids were washed 2 times in RPMIN prior to the next stimulation. Secreted insulin was measured using the Stellux Chemi Human Insulin ELISA (ALPCO Diagnostics, 80-INSHU-CH10).
smiles,measurement,setting,value
[Cl-].[K+] [KCl],"insulin secretion response of GINS cells to the agent, dynamic GSIS",GINS organoids [1],responded robustly
"NC(=O)c1cccnc1 [Nicotinamide, 3-pyridinecarboxamide]",INS mRNA levels,Ngn3ER/PM-hGSCs; vs no supplement control,significantly promoted; also recorded: significantly up-regulated
COc1ccc(Cl)cc1C(=O)NCCc1ccc(S(=O)(=O)NC(=O)NC2CCCCC2)cc1 [Glibenclamide],insulin secretion response of GINS organoids to the drug,GINS organoids [2],responded
CC1=NS(=O)(=O)c2cc(Cl)ccc2N1 [Diazoxide],insulin secretion response of GINS organoids to the drug,GINS organoids [2],responded
"C[C@@H](N)[C@H]1CC[C@H](C(=O)Nc2ccncc2)CC1.Cl.Cl [Y-27632, trans-4-[(1R)-1-aminoethyl]-N-4-pyridinyl-Cyclohexanecarboxamide, dihydrochloride]",INS mRNA levels,"Ngn3ER/PM-hGSCs; vs no supplement control, dihydrochloride",significantly promoted; also recorded: significantly up-regulated
"Cc1cccc(-c2nn(C(=S)Nc3ccccc3)cc2-c2ccnc3ccccc23)n1 [A8301, 3-(6-methyl-2-pyridinyl)-N-phenyl-4-(4-quinolinyl)-1H-pyrazole-1-carbothioamide]",spontaneous aggregation (clustering) of nascent GINS cells,Ngn3ER/PM-hGSCs; mCherry live imaging,stimulated; also recorded: most observable clustering effect
same,expression of several key b-cell transcription factors,"Ngn3ER/PM-hGSCs; qPCR, vs no supplement control",stimulated
